These are literature values, as cited in article PMC12287436 (Scientific Reports, 2025).

The conditions of the data set: rabbits; 2% instillation dose.

Where a name gives a salt, the structure may show the parent alone.

In the case of `CCN[C@H]1C[C@H](C)S(=O)(=O)c2sc(S(N)(=O)=O)cc21` [dorzolamide hydrochloride], the Retinal concentration is reported as 2.8 µM.
